Source: patent publication US20080249156A1, “Combinations of statins and anti-obesity agent and glitazones” (priority 2007, published 2008)
Where two headings read alike, the source gives them in different places.

Assays:
[1] = not given; remark: listed apart in the source
[2] = Example 1, patient on rosiglitazone 4 mg once a day
[3] = Example 2, patient on rosiglitazone 4 mg twice a day and metformin 500 mg twice daily
[4] = Example 3, patient on rosiglitazone 8 mg once daily and metformin 500 mg once daily

CN(CCOc1ccc(CC2SC(=O)NC2=O)cc1)c1ccccn1 (stereo not drawn) [rosiglitazone]
increase: body weight since beginning the rosiglitazone therapy [2] | body weight since beginning the rosiglitazone therapy [3] | body weight since beginning the rosiglitazone therapy [4] | total cholesterol since beginning the rosiglitazone therapy [1, 2] | total cholesterol since beginning the rosiglitazone therapy [1, 3] | total cholesterol since beginning the rosiglitazone therapy [1, 4]
